Test results as given in article PMC11811597, “Phenomics‐Based Discovery of Novel Orthosteric Choline Kinase Inhibitors” (Angewandte Chemie (International Ed. in English), 2025).

How the values were obtained:
Format in all cases: binding
EHMT1 (GLP) = biological target: T1, EHMT1 (GLP) (Homo sapiens, UniProt Q9H9B1); assay: Competitive affinity-based chemoproteomics (UNC0965 matrix), MCF7 lysate; conditions: MCF7 lysates, 20 μM competitor
T1 construct: endogenous in cells; host or cells: MCF7 whole cell lysate
T1 sequence (Q9H9B1 whole entry): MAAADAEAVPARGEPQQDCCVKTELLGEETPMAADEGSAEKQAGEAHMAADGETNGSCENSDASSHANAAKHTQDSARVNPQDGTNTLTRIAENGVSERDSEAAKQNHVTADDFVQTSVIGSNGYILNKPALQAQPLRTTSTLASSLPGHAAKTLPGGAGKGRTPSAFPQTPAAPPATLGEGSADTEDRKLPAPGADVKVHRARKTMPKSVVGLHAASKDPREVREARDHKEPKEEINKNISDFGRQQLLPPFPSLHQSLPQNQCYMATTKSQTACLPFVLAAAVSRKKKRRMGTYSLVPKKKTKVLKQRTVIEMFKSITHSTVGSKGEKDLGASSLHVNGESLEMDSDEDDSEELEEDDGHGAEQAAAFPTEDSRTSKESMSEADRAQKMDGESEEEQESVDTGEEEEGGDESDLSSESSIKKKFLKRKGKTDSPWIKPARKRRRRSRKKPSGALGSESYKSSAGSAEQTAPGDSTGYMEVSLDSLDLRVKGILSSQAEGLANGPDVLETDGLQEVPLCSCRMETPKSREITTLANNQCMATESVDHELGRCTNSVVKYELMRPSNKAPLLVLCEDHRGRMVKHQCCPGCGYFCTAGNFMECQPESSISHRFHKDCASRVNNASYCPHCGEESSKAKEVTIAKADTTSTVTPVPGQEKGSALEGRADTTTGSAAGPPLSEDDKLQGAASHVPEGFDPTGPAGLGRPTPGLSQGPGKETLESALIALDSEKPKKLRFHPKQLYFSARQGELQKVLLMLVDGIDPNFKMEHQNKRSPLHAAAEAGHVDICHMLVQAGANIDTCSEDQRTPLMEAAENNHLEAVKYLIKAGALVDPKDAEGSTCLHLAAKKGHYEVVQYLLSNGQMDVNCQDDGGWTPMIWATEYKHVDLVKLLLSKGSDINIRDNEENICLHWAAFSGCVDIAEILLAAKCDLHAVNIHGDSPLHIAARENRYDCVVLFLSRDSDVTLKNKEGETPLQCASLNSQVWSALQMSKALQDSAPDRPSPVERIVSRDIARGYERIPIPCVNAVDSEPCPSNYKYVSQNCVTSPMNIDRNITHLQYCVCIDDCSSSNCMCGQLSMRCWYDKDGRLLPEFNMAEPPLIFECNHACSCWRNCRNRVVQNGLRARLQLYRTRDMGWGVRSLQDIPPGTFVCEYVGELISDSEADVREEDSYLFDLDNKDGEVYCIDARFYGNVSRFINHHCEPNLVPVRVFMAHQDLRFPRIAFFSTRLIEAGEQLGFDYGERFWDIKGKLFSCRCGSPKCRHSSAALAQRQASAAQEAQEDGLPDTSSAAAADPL
Procedure: (§1) A-366 and UNC0638 were purchased from Tocris. ARIAD and V-11-07-11 were purchased from Wuxi Apptec. UNC0737 and UNC0965 were synthesised as previously described.[1] […]
(§2) #35050061). Cells were maintained at 37 °C in a humidified 5% CO2 atmosphere. […]
(§3) Chemical Proteomics Drug Pulldown
(§4) For lysate generation MCF7 cells were grown until approximately 80% confluency before being pelleted and washed with PBS. Cell pellets were subsequently lysed by addition of Buffer A (50 mM Tris pH 7.5, 0. 8% v/v NP-40, 5% v/v glycerol, 1.5 mM MgCl2, 100 mM NaCl, 25 mM NaF, 1 mM Na3VO4, 1 mM PMSF, 1 mM DTT, 10 μg mL−1 TLCK, 1 μg mL−1 Leupeptin, 1 μg mL−1 Aprotinin, 1 μg mL−1 soy bean trypsin) as previously described.[2]
(§5) For each pulldown condition, UNC0965 was coupled to 100 μL of UltraLink Immobilized Streptavidin Plus bead slurry (50% in isopropanol, GE Healthcare) to generate the affinity matrix as previously […]
(§6) described.[2] Lysates were precleared with bead slurry (100 μL) for 30 min at 4 °C and then treated with UNC0638 or UNC0737 (20 μM) or DMSO control for 30 min at 4 °C followed by incubation with affinity matrix for 2 h at 4 °C. Affinity matrices were washed with buffer A (5 mL) and proteins eluted with 100 μL of 2x Laemmli sample buffer, 100 mM DTT, in PBS and heating for 10 min at 90 °C.
(§7) Eluents (70 µL) were diluted in 0.1 M Tris (pH 7.8) to 200 µL, reduced with 5 mM DTT for 30 min at RT, and alkylated with 20 mM iodoacetamide for 30 min at RT in the dark. Proteins were precipitated by sequential addition of MeOH (600 µL), CHCl3 (150 µL) and H2O (450 µL), pelleted (17,000 × g, 5 min), washed with further MeOH (2 × 600 µL), and re-pelleted. Air dried pellets were resuspended in 50 μL 6 M urea (pH 7.8) by vortexing and then diluted with 250 μL H2O before adding 1 µg trypsin for overnight incubation at 37 °C. The digests were acidified with FA (1% v/v final concentration), desalted using SOLA HRP SPE Cartridges (Thermo Fisher), eluted with 69% v/v MeCN, 0.1% v/v FA in H2O (600 μL) and dried in vacuo. Dried peptides were stored at -20 °C before resuspension in 2% v/v MeCN, 0.1% v/v FA in H2O (20 μL) for LC-MS/MS analysis.
(§8) LC-MS/MS Data Acquisition
(§9) Digested samples were analysed by nano-UPLC–MS/MS using a Dionex Ultimate 3000 nano UPLC fitted with an EASY spray column (75 μm × 500 mm, 2 μm particle size, Thermo Scientific), coupled to an Orbitrap Q Exactive instrument. A 60 min gradient of 0.1% (v/v) formic acid in 5 % (v/v) DMSO to 0.1% (v/v) formic acid with 35% (v/v) acetonitrile in 5 % (v/v) DMSO at a flow rate of 250 nL min−1 was used. The instrument was operated in a data-dependant mode, with survey scans acquired at a resolution of 70,000 at 200 m/z and the 15 most abundant precursors selected for HCD fragmentation with an AGC target of […] ions.
(§10) Raw data was processed using MaxQuant[3] version 2.0.1.0 and the reference complete human proteome FASTA file (UniProt, downloaded 05.08.21). Label Free Quantification (LFQ) and Match Between Runs were selected; Cysteine carbamidomethylation was selected as a fixed modification, and methionine oxidation and asparagine deamidation as variable modifications. Default settings for identification and quantification were used. Specifically, a minimum peptide length of 7, a maximum of 2 missed cleavage sites, and a maximum of 5 labelled amino acids per peptide were allowed.
(§11) Through selection of the ‘trypsin/P’ general setting, peptide bond cleavage at arginine or lysine (followed by any amino acid) was considered during in silico digest of the reference proteome. The allowed precursor and fragment ion mass tolerances were 4.5 ppm and 20 ppm, respectively. Peptides and proteins were identified utilizing a 0.01 false discovery rate, with “unique and razor peptides” […]
(§12) mode selected for both identification and quantification of proteins (razor peptides are uniquely assigned to protein groups and not to individual proteins). At least 1 razor + unique peptides were required for valid quantification. […]

PRCP = biological target: T2, PRCP (Homo sapiens, UniProt P42785); assay: as above; conditions: 20 μM competitor, n=2
T2 construct: endogenous in cells; host or cells: MCF7 whole cell lysate
T2 sequence (P42785 46-496): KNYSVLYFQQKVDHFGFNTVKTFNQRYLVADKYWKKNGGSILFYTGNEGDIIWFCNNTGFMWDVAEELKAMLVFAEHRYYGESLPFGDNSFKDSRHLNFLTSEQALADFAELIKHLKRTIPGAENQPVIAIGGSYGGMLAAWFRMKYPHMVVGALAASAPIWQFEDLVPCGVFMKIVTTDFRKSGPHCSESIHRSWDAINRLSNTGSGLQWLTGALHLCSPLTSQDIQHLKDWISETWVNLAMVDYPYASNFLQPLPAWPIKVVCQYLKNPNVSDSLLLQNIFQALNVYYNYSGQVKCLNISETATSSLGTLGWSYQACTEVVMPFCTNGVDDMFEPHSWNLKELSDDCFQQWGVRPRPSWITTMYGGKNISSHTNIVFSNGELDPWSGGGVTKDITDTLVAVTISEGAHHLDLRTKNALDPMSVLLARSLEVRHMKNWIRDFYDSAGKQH
Procedure: as §1, §2, §3, §4, §5, §6, §7, §8, §9, §10, §11, §12

TUBD1 = biological target: T3, TUBD1 (Homo sapiens, UniProt Q9UJT1); assay: as above; conditions: 20 μM competitor, n=2
T3 construct: endogenous in cells; host or cells: MCF7 whole cell lysate
T3 sequence (Q9UJT1 whole entry): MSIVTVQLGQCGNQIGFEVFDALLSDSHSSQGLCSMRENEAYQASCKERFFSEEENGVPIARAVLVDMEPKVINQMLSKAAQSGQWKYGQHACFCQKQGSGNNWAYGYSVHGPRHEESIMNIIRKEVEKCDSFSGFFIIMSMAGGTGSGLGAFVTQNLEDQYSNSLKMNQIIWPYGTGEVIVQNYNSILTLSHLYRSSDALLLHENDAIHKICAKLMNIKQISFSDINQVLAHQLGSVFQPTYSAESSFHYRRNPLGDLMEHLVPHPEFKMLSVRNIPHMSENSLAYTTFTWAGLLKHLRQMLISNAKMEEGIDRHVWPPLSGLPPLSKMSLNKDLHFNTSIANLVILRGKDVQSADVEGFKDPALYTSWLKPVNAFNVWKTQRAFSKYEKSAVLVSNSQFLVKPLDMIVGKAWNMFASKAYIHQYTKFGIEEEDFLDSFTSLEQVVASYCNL
Procedure: as §1, §2, §3, §4, §5, §6, §7, §8, §9, §10, §11, §12

HNRNPD = biological target: T4, HNRNPD (Homo sapiens, UniProt Q14103); assay: PISA thermal profiling, K562 cell lysates; conditions: K562 lysate, 30 µM, 15 min, n=3
T4 construct: endogenous in cells; host or cells: K562 cell lysate
T4 sequence (Q14103 whole entry): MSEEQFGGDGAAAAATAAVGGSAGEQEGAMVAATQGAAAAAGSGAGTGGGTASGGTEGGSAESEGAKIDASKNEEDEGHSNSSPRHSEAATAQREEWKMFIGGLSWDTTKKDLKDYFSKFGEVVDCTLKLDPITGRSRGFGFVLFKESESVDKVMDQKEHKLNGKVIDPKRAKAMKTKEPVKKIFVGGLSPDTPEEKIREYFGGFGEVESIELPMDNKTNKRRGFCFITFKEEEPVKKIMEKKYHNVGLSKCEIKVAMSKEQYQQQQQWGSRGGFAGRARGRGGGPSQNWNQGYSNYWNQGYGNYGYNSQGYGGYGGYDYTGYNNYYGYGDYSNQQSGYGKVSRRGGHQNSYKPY
Procedure: (§13) Experiments were performed as described earlier with few modifications. In short, 3 replicates of intact HepG2 cells were treated with 30 µM UNC0638, […] or corresponding volume of DMSO in medium-free experimental buffer for 60 min at 37 °C with end-over-end rotation. For lysates: Washed K562 cells were resuspended in medium-free experimental buffer and lysed by three freeze-thaw cycles. Lysate was centrifugated 20,000 × g for 20 min at 4 °C to remove cell debris. The cleared lysate was treated with 30 µM UNC0638, UNC0373 or corresponding volume of DMSO for 15 min at RT with end-over-end rotation. Each treated cell suspension or lysate was divided into 12 aliquots and subjected to a 12-step heat gradient from 44 °C to 64 °C. All the temperature points were pooled together to form […] individual samples. Soluble fraction was separated from precipitated proteins […]
(§14) by centrifugation at 30,000 × g for 20 min at 4 °C. The soluble fractions were collected to fresh tubes and further processed to be analysed with mass spectrometry. Sample handling, TMT labelling, LC-MS/MS analysis, protein identification and data analysis was performed as described earlier.[12] […]
(§15) Figure S3: Western blot of elution fractions after chemical pulldown with UNC0965 in MCF7 cell extract pre-incubated with indicated compounds (20 μM) or DMSO.
(§16) Figure S4: PISA thermal profiling results in K562 cell lysates. A) Volcano plots of UNC0638 and […]
(§17) Dashed lines represent amplitude > 0.05, < - 0.05 and log10(adjusted p-values) > 2 (two-sided two sample t-test, Benjamini-Hochberg corrected, n = 3).
(§18) 6,924 proteins were identified. B) UNC0737 stabilises CHKA stronger than UNC0638. […]

R3HCC1L = biological target: T5, R3HCC1L (Homo sapiens, UniProt Q7Z5L2); assay: PISA thermal profiling, K562 cell lysates; conditions: K562 lysate, 30 µM, 15 min, n=3
T5 construct: endogenous in cells; host or cells: K562 cell lysate
T5 sequence (Q7Z5L2 1-184 isoform Q7Z5L2-3): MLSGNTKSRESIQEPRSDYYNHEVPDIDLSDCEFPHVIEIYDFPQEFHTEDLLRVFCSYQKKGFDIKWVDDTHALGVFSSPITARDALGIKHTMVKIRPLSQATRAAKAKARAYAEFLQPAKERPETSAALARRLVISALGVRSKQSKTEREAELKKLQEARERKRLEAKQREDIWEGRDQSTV
Procedure: as §13, §14, §15, §16, §17, §18

RBBP8NL = biological target: T6, RBBP8NL (Homo sapiens, UniProt Q8NC74); assay: PISA thermal profiling, K562 cell lysates; conditions: K562 lysate, 30 µM, 15 min, n=3
T6 construct: endogenous in cells; host or cells: K562 cell lysate
T6 sequence (Q8NC74 whole entry): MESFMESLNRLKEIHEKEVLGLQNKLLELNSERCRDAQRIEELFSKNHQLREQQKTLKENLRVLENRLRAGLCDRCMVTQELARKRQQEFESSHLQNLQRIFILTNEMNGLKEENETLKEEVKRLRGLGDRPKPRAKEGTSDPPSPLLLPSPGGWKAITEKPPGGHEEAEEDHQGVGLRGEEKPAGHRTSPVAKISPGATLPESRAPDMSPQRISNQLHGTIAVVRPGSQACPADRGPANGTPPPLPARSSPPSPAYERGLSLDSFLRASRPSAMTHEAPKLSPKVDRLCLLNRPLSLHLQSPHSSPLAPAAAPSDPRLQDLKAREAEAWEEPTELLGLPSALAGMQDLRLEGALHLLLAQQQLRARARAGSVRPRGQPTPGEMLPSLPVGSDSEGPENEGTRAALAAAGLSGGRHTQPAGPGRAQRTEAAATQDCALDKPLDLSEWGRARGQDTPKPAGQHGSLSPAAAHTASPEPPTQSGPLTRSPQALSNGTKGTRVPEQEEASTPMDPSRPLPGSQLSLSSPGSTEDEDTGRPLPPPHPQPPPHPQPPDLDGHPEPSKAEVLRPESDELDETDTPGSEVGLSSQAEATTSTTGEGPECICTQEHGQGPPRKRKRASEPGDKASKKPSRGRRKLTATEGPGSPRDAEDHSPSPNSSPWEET
Procedure: as §13, §14, §15, §16, §17, §18

Compound | competition for EHMT1 (GLP) binding to affinity matrix (EHMT1 (GLP)) | FC vs DMSO (log2 competition), PRCP (PRCP) | FC vs DMSO (log2 competition), TUBD1 (TUBD1) | effect_CETSA_Lysate (PISA amplitude), HNRNPD (HNRNPD) | effect_CETSA_Lysate (PISA amplitude), R3HCC1L (R3HCC1L) | effect_CETSA_Lysate (PISA amplitude), RBBP8NL (RBBP8NL)
COc1cc2c(NC3CCN(C(C)C)CC3)nc(C3CCCCC3)nc2cc1OCCCN1CCCC1 [UNC0638] | strong enrichment and competition | -2.542 | -2.877 | 0.387 | 0.239 | 0.217
COc1cc2c(N(C)C3CCN(C(C)C)CC3)nc(C3CCCCC3)nc2cc1OCCCN1CCCC1 [UNC0737] | did not ablate binding | 0.1604 | -0.7809 | 0.605 | 0.415 | 0.393
